# Reference: PMC10520499, “Next step in the development of mesoprogestins: the preclinical profile of EC313” (Frontiers in Endocrinology, 2023)
# “And” between values parts separate entries of the source, which are not always exact repeats. Identical values can stand only once.
# What was measured:
# [1] = biological target: T1, human estrogen receptor β (Homo sapiens, UniProt Q92731); assay: Competitive binding, human estrogen receptor β; details: ERβ, full length
# T1 construct: coding for the full length human estrogen receptors α and β, respectively, were obtained from GenScript; made in house; host or cells: HI (Hi5) insect cells, baculovirus; cellular lysate
# T1 sequence (Q92731 whole entry): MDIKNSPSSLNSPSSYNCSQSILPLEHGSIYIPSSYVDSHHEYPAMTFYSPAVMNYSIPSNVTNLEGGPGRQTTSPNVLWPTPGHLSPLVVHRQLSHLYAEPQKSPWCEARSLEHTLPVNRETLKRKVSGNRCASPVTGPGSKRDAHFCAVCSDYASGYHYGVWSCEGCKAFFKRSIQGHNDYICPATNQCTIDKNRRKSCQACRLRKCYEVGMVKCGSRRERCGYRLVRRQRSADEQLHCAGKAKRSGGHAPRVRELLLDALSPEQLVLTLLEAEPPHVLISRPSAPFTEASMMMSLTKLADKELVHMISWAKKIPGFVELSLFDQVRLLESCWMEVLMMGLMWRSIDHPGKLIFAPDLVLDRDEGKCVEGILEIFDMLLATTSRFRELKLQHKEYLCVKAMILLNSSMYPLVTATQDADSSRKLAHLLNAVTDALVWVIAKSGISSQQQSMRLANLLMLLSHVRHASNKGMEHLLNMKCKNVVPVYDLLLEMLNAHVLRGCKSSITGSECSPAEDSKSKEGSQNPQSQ
# Protocol: The study aimed to characterize the competitive binding profile of EC313 to relevant human nuclear receptors. For the assays, commercially available ‘ligand binding domain’ proteins were purchased (Thermo Fisher Scientific). In addition, the full-length receptor proteins were expressed in transfected HI insect cells using the `Bac-to-bac Baculovirus expression system´ (Thermo Fisher Scientific). Cellular lysates served as receptor preparation. Receptor protein preparations were incubated with tritiated reference ligands and EC313 or reference steroids at concentrations between 0.1 and 1000 nM for 2h at 4°C to reach equilibrium. Subsequently, unbound steroids were adsorbed to dextran-coated charcoal (Sigma Aldrich), separated by filtration, and the remaining radioactivity was quantified in a ß-counter (Perkin Elmer). Displacement curves were fitted using the GraphPad Prism 7 free version to obtain EC50 values. Relative binding affinity (RBA [%], (C50ref/C50test)*100) and the competition coefficient (C50test/C50ref) were used to describe the relative binding potency of EC313 compared to the reference ligands.
# There are two subtypes of estrogen receptors (ER), ERα and ERβ, coded in different genes. Plasmids pFastBac1-ERa and pFastBac1-ERb, coding for the full length human estrogen receptors α and β, respectively, were obtained from GenScript. […]
# [2] = biological target: T2, human mineralocorticoid receptor (hMR) (Homo sapiens, UniProt P08235); assay: MR transactivation (U2OS, MMTV-LUC); type: cell-based
# T2 construct: host or cells: U2OS, transient co-transfection
# T2 sequence (P08235 1-984): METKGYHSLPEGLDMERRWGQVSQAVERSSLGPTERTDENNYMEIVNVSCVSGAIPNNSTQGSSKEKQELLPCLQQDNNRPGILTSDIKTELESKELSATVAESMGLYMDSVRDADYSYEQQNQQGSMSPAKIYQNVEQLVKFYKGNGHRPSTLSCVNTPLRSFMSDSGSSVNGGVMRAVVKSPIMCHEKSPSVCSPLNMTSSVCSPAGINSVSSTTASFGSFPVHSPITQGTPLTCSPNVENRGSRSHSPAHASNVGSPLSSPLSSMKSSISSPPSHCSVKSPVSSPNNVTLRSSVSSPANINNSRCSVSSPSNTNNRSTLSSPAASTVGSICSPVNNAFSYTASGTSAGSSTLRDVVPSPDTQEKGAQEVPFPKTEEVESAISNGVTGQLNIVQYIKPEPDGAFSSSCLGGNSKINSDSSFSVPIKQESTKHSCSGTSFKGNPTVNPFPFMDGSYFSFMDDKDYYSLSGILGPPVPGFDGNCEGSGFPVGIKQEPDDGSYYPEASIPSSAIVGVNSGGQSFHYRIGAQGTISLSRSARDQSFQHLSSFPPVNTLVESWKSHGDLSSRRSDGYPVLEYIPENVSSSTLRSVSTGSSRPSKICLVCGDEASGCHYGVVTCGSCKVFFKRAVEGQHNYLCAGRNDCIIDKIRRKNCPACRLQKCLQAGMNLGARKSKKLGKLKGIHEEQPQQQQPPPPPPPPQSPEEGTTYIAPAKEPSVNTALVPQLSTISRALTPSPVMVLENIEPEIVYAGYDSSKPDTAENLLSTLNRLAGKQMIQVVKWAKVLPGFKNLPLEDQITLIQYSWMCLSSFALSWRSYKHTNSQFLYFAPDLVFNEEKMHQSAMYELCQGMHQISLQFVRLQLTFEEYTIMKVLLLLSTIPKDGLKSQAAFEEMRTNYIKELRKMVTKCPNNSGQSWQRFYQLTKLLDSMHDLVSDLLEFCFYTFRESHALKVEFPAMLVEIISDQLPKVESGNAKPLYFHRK
# Source text: The U2OS cell line which expresses the mineralocorticoid receptor was used to study the gene expression on the transcriptional level under the influence of EC313 and the reference compound. The cells were transfected with a vector encoding a human full-length mineralocorticoid receptor (hMR) linked to the reporter vector MMTV/LUC. Cells were transiently and stably transfected in order to reach high protein expression. Next, co-transfected U2OS cells carrying mineralocorticoid receptors and reporter vector MMTV/LUC were stimulated by the tested compounds (Aldosterone or EC313) or the mixture: aldosterone and an appropriate range of concentrations of EC313. The agonist and antagonist properties of EC313 toward tested receptor MR were analyzed using luminescence detection.
# In order to develop the transfection assay, plasmid-included vectors coding sequences for the receptor as well as the reporter gene were generated and isolated, respectively. Vector pcDNA3.1 coding sequence for full length of human MR (MR cDNA ORF clone in pcDNA3.1+/C-(K)-DYK) was used as an expression vector for MR and was linked to the reporter system (pGL4.36-MMTV/LUC) building with vector pGL4.36 coding the mineralocorticoid responsive element (MMTV) and firefly luciferase [luc2P/Hygro].
# Transfection was performed on a 96-well plate (15.5x10^3 cells per well) in culture medium (RPMI phenol red, 10% FBS, L-Glu) w/o antibiotics according to the manufacturer’s specification. Prior to transfection, plated cells were approximately 70%–80% confluent. 24h later, cells were treated with test compounds overnight.
# The properties of EC313 to induce/inhibit tested receptor was studied in agonistic and antagonistic approaches. Co-transfected U2OS cells were stimulated with either aldosterone (0.009 nM - 1200 nM) or EC313 (0.009 nM - 1200 nM) in order to determine and compare the agonist potential of test compounds. The antagonistic activity was checked in competitive interaction between EC313 (0.009 nM - 1200 nM) and 0.4 nM of Aldosterone.
smiles,measurement,setting,value
C[C@]12C[C@H](c3ccc(-c4ccoc4)cc3)C3=C4CCC(=O)C=C4CC[C@H]3[C@@H]1CC[C@]21OCCC1=C(F)F [EC313],competitive displacement of [3H]-estradiol,[1],did not cause any competitive displacement
same,transactivation of hMR (agonism),[2],does not transactivate hMR
same,fold lower potency than Spironolactone,[2]; MR antagonism,approximately 80 fold
same,IC50,"[2]; MR, 0.4 nM Aldosterone, read-out: IC50, antagonism of Aldosterone-induced transactivation",2000 nM and ~2000 nM
